We go through ten molecules from ChEMBL document CHEMBL1201862, “PubChem BioAssay data set” (2004).

The target of experiment [1] is E3 ubiquitin-protein ligase Mdm2/Protein Mdm4 (Homo sapiens, UniProt O15151+Q00987). In words: Mdm2-MdmX interaction inhibitors, dose response, luminescence detection (AID 504593). It is filed as functional.
The nature of experiment [2]: Luminescence Cell-Based Dose Response HTS to Identify Activators of Luciferase Translation or Activity in H4 […] Cells. [Related pubchem assays: 1829 (Project Summary), 1814 (Primary HTS)]. It counts as functional.
Experiment [3] is described as follows: Luminescence Cell-Based Dose Confirmation HTS to Identify Activators of 5'UTR Stem-Loop Driven Alpha-Synuclein mRNA Translation in H4 Neuroglioblastoma Cells. [Related pubchem assays: 1829 (Project Summary), 1814 (Primary HTS)]. It is filed as functional.
A further experiment has as its system H4. In words: Luminescence Cell-Based Dose Response HTS to Identify Activators of 5'UTR Stem-Loop Driven Prion Protein mRNA Translation in H4 Neuroglioblastoma Cells. [Related pubchem assays: 1829 (Project Summary), 1814 (Primary HTS)]. It counts as functional. The conditions noted are these: Homo sapiens.
The target in experiment [4] is T1, Short transient receptor potential channel 4 (Mus musculus, UniProt Q9QUQ5).
T1 sequence (Q9QUQ5 whole entry): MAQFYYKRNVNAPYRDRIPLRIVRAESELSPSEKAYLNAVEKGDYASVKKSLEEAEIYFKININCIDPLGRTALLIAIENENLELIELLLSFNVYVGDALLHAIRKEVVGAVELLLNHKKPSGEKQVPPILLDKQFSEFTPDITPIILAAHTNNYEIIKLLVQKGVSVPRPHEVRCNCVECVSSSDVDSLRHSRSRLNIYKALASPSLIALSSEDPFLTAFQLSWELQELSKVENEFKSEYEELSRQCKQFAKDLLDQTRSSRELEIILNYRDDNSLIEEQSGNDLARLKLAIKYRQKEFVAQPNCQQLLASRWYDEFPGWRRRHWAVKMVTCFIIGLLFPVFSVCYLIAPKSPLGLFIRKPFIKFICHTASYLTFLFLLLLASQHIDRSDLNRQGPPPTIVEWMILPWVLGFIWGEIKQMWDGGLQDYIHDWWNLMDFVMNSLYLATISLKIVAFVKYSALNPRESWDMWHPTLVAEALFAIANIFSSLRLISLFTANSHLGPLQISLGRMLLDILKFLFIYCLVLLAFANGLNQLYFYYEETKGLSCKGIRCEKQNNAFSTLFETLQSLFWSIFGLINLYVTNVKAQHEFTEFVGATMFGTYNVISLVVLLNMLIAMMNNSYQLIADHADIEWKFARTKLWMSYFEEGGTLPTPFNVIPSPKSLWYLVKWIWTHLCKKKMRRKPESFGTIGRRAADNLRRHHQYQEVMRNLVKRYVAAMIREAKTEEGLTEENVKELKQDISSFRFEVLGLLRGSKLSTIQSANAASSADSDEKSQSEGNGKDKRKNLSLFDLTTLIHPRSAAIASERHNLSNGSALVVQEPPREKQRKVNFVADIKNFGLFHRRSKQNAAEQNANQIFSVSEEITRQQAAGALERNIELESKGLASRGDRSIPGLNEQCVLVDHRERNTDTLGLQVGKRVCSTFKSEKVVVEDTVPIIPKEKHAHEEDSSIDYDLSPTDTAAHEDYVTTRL
Put plainly: TRPC4 positive allosteric modulators, dose response, cell-based, HEK293 TRPC4/mu-opioid, Fluo-4 calcium, EC20 DAMGO (AID 434941).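 Also: HEK293 cells coexpressing TRPC4 and mu opioid receptor stimulated by EC20 DAMGO.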 It is filed as functional.

Another experiment addresses Troponin, cardiac muscle (Homo sapiens, UniProt P19429+P45379+P63316). Put plainly: Fluorescence-based biochemical high throughput dose response assay for activators of the calcium sensitivity of cardiac Regulated Thin Filaments (RTF). [Related pubchem assays (depositor defined):AID493008, AID493018, AID504382, AID504383]. It counts as protein-complex assay.
Experiment [5] can be described thus: THP-1 cell cytotoxicity, dose response, cytotoxicity control for non-replicating M. tuberculosis project (AID 489025). It counts as functional.
The nature of experiment [6]: Vero E6 cell cytotoxicity, dose response, cytotoxicity control for non-replicating M. tuberculosis project, secondary assay (AID 492998). It is filed as functional, VeroE6. The conditions noted are these: Vero C1008.
The nature of experiment [7]: cytotoxicity toward DRD oncogenic fibroblasts, dose response, cell-based, non-viral oncogenic, luminescence (AID 1934). It counts as functional. The conditions noted are these: Homo sapiens.
Experiment [8] relates to BJ. Put plainly: cells. Particulars: Homo sapiens. It counts as functional, cell-based.
Experiment [9] relates to BJ. In words: cytotoxicity toward BJ-TERT fibroblasts, dose response, cell-based, RAS-independent, luminescence (AID 1933). It is filed as functional. The conditions noted are these: Homo sapiens.
Experiment [10] concerns BJ. Put plainly: cytotoxicity toward BJ-TERT-LT-ST fibroblasts, dose response, cell-based, RAS-independent, luminescence (AID 1935).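 Also: BJ fibroblasts immortalized with TERT plus LT and ST oncogenes.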 The conditions noted are these: Homo sapiens. It counts as functional.
A further experiment in a line: cells. It is filed as functional.
Experiment [11] addresses Guanyl-specific ribonuclease T1 (Aspergillus oryzae (strain ATCC 42149 / RIB 40), UniProt P00651). Put plainly: RNase T1 inhibitors, dose response, counter-screen for TPT1 inhibitor project, biochemical, fluorescence polarization, 1536-well (AID 2167). On the technique in general: A counterscreen serves to expose hits that act by an unwanted route or on another target.
Experiment [12] concerns the target T2, Endoribonuclease toxin MazF (Escherichia coli K-12, UniProt P0AE70).
T2 sequence (P0AE70 whole entry): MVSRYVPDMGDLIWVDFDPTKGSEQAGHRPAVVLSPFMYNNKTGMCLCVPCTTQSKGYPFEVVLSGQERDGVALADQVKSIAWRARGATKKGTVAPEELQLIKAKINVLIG
In words: fluorescent RNA oligo signal without MazF, dose response, counter-screen for MazEF activator project, biochemical, fluorescence, single-stranded RNase substrate (AID 588502). It counts as functional.

The next experiment has as its target Mucolipin-3 (Homo sapiens, UniProt Q8TDD5). Put plainly: Fluorescence counterscreen assay for […] agonists: dose response cell-based high-throughput screening assay to identify agonists of the transient receptor potential channel ML3 (TRPML3). [Related pubchem assays: 1424, 1448 ]. It is filed as functional.
Experiment [13] has as its target T2, Endoribonuclease toxin MazF. In words: MazF toxin RNase activators, dose response, biochemical, fluorescence, single-stranded RNA substrate, uHTS hits (AID 588481). It is filed as functional.
In experiment [14] the target is Likely tRNA 2'-phosphotransferase (Candida albicans (strain SC5314 / ATCC MYA-2876) (Yeast), UniProt Q5A7N4). Put plainly: TPT1 tRNA phosphotransferase inhibitors, dose response, biochemical, fluorescence polarization (AID 2160). A general note: Fluorescence polarisation rises when a labelled molecule tumbles more slowly, as on binding a larger partner.
Sequence of Likely tRNA 2'-phosphotransferase (Q5A7N4 whole entry): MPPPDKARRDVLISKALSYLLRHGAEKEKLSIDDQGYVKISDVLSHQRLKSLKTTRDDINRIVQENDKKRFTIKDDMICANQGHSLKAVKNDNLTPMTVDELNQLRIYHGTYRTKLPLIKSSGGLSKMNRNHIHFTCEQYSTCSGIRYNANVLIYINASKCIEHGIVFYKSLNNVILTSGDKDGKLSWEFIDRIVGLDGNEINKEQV
The next experiment deals with Ion channel NompC (Danio rerio, UniProt Q7T1G6). Put plainly: Dose response cell-based high-throughput screening assay for agonists of the transient receptor potential channel N1 (TRPN1). [Related pubchem assays (depositor defined):AID1424, AID1448]. It is filed as functional.
Sequence of Ion channel NompC (Q7T1G6 whole entry): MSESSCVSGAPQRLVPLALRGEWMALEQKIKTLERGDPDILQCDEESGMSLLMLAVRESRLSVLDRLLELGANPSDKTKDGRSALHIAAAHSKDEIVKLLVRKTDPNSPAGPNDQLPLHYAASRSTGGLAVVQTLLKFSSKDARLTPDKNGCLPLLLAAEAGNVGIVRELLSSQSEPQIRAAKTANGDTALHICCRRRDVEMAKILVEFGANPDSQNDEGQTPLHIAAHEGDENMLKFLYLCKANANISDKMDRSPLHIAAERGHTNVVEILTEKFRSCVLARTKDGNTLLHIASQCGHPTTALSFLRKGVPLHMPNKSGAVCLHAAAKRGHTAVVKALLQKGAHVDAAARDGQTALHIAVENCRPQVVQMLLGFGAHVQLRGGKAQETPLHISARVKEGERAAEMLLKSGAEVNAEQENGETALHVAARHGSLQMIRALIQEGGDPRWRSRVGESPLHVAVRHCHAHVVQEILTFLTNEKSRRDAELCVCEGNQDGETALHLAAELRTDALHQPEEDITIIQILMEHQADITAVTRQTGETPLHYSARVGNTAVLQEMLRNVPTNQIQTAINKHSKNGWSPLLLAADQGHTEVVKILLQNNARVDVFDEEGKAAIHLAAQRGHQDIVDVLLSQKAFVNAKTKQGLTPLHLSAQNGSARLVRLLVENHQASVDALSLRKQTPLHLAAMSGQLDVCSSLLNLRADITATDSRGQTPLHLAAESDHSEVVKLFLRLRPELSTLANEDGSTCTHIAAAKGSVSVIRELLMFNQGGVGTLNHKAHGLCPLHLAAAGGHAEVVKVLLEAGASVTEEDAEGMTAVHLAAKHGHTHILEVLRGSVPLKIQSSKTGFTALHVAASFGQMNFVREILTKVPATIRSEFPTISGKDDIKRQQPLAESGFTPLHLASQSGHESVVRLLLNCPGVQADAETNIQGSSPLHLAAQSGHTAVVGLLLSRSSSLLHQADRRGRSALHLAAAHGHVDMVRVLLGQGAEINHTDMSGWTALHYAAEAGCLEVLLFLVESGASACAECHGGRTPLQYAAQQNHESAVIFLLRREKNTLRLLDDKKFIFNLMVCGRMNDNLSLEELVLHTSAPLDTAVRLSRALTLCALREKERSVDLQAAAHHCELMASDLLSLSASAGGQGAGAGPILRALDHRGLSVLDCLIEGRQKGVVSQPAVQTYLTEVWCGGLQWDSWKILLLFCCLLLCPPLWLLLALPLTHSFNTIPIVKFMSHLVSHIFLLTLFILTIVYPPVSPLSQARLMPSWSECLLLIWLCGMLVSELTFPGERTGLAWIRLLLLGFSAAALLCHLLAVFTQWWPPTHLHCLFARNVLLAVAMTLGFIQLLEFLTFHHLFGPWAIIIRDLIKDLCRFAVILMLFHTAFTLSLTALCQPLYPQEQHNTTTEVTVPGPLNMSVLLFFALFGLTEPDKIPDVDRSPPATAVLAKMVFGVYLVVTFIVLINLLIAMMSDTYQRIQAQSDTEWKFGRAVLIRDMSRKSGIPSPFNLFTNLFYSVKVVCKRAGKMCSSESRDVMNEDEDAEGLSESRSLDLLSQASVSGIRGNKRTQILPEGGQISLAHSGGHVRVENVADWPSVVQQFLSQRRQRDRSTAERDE
The target in experiment [15] is T3, Kappa-type opioid receptor (Homo sapiens, UniProt P41145). In words: SAR analysis of small molecule antagonists of the kappa opioid receptor via a luminescent beta-arrestin assay - Set 6. [Related pubchem assays (depositor defined):AID1777, AID1778, AID1785, AID1786, AID1966, AID2133, AID2136, AID2285]. It is filed as functional.
T3 sequence (P41145 whole entry): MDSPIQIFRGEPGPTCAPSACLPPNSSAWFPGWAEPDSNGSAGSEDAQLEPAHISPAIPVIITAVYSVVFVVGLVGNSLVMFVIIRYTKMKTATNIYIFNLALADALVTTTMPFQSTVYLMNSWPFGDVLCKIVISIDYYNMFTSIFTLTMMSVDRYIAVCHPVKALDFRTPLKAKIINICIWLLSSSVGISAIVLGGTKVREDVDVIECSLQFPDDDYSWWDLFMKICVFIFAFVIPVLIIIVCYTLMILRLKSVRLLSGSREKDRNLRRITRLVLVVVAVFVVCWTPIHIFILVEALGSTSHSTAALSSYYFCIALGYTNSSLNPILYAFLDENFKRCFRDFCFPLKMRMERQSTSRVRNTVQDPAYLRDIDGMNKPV
Experiment [16] has as its target T3, Kappa-type opioid receptor. Put plainly: SAR analysis of Antagonists of the Kappa Opioid Receptor (KOR) using an Image-Based Assay - Set 3. [Related pubchem assays (depositor defined):AID1777, AID1785]. It is filed as functional.
The target of experiment [17] is T3, Kappa-type opioid receptor. Put plainly: SAR analysis of Antagonists of the Kappa Opioid Receptor (KOR) using an Image-Based Assay - Set 4. [Related pubchem assays (depositor defined):AID1777, AID1785]. It counts as functional.
In experiment [18] the target is Delta-type opioid receptor (Homo sapiens, UniProt P41143). In words: SAR Analysis of Antagonists of the DOR Receptor using an Image-Based Assay - Set 3. [Related pubchem assays (depositor defined):AID1777, AID1785]. It is filed as functional.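 Also: U2OS cells expressing DOR1 and beta-arrestin GFP stimulated with 100 nM SNC80; imaging of GFP-tagged beta-arrestin moving into spots after receptor activation.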
Sequence of Delta-type opioid receptor (P41143 whole entry): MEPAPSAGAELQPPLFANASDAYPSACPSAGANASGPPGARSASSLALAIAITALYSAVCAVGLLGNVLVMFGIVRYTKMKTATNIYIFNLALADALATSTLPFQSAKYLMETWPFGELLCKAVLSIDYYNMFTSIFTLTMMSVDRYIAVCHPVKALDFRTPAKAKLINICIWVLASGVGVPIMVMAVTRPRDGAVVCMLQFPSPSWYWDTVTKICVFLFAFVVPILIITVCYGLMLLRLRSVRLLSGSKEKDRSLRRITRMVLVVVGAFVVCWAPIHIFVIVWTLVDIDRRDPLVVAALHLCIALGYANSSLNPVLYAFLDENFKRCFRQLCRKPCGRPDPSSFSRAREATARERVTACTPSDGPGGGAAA
Experiment [19] concerns the target T3, Kappa-type opioid receptor. Put plainly: SAR analysis of small molecule antagonists of the kappa opioid receptor via a luminescent beta-arrestin assay - Set 3. [Related pubchem assays (depositor defined):AID1777, AID1778, AID1785, AID1786, AID1966, AID2133, AID2136, AID2285, AID2495]. It counts as functional.
The next experiment has as its target Mu-type opioid receptor (Homo sapiens, UniProt P35372). Put plainly: SAR Analysis of Antagonists of the MOR Receptor using an Image-Based Assay - Set 3. [Related pubchem assays (depositor defined):AID1777, AID1785, AID1786, AID1966, AID2133, AID2136, AID2284, AID2285, AID2420]. It is filed as functional.
In the next experiment the target is Integrin alpha-4 (Homo sapiens, UniProt P13612). In words: VLA-4 integrin allosteric ligands, SAR follow-up, cell-based, LIBS antibody binding, flow cytometry (AID 488791). It is filed as functional. For orientation: Flow cytometry measures light scatter and fluorescence of single cells or particles in a stream.
Sequence of Integrin alpha-4 (P13612 whole entry): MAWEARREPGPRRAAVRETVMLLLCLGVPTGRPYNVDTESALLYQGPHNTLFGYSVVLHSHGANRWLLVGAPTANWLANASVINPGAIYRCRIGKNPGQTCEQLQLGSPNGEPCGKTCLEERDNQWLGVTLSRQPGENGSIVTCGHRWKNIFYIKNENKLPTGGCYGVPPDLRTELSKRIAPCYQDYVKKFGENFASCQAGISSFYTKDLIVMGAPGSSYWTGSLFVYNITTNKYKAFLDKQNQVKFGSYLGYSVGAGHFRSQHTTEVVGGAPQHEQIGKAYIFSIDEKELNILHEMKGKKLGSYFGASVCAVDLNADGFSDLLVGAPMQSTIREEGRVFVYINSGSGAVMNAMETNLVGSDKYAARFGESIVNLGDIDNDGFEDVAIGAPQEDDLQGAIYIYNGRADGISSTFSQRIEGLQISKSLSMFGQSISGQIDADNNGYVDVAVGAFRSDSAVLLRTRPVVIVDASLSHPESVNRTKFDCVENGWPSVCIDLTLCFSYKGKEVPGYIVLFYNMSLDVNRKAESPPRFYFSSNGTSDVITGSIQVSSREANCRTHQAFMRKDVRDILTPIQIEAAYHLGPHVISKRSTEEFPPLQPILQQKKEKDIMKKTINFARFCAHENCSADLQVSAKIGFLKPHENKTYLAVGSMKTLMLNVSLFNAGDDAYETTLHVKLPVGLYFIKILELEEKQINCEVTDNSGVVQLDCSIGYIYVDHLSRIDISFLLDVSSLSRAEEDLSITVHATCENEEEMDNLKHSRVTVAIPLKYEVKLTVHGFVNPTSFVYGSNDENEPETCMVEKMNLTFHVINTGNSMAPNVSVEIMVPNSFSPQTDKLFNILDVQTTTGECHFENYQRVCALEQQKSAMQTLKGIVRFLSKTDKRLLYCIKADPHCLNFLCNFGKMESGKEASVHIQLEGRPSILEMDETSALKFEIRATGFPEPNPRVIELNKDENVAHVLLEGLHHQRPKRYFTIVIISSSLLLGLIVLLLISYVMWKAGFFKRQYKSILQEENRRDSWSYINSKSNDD
The next experiment concerns the target Hexokinase (Trypanosoma brucei, UniProt Q38C41). In words: Confirmation assay for inhibitors of Trypanosoma brucei hexokinase 1-Analogue-first series. [Related pubchem assays (depositor defined):AID1430, AID1632, AID2516, AID2560, AID2579, AID2600, AID449725, AID492951]. It counts as functional.
The target in experiment [20] is Intestinal-type alkaline phosphatase (Homo sapiens, UniProt P09923). In words: human intestinal alkaline phosphatase activators, dose response, biochemical, luminescence, uHTS hits (AID 463120). It is filed as functional.
Experiment [21] concerns the target Glyceraldehyde-3-phosphate dehydrogenase (Homo sapiens, UniProt P04406).
The target of experiment [22] is Alkaline phosphatase, placental type (Homo sapiens, UniProt P05187). In words: PLAP enzyme inhibitors, confirmation, biochemical, luminescence (AID 1512). It counts as functional.
Sequence of Alkaline phosphatase, placental type (P05187 whole entry): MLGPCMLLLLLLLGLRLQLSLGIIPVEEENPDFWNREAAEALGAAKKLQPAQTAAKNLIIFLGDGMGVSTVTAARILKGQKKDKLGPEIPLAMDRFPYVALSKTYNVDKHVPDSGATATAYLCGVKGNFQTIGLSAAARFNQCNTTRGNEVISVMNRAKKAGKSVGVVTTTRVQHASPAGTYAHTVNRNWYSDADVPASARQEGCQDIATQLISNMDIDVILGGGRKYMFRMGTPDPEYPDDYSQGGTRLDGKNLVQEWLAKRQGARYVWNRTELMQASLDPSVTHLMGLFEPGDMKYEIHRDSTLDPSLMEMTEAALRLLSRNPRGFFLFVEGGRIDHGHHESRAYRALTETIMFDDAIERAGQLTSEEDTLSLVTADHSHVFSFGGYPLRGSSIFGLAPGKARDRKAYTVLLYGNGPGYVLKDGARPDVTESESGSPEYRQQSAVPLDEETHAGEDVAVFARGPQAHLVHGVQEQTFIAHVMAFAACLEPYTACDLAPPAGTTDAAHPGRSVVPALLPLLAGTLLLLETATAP
In experiment [23] the target is T4, Alkaline phosphatase, tissue-nonspecific isozyme (Homo sapiens, UniProt P05186).
T4 sequence (P05186 whole entry): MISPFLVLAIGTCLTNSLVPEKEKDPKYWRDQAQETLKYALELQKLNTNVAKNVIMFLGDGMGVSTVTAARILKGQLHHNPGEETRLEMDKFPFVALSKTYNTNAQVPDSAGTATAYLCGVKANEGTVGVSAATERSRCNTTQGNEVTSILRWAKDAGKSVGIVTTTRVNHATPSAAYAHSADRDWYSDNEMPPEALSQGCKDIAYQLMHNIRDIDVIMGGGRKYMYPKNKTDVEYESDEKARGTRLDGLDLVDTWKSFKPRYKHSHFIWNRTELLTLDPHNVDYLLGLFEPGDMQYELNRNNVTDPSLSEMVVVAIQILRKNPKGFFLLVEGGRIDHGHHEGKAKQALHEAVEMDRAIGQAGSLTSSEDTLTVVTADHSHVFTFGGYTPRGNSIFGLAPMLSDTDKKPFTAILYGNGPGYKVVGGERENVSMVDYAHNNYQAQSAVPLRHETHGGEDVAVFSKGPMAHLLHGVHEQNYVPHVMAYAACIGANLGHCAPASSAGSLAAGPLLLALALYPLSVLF
Put plainly: human TNAP enzyme inhibitors, SAR follow-up, biochemical, luminescent, dose response (AID 1056).

Each structure is given as a SMILES string. Active and inactive are the calls of the source.

Sequence of Hexokinase (Q38C41 whole entry): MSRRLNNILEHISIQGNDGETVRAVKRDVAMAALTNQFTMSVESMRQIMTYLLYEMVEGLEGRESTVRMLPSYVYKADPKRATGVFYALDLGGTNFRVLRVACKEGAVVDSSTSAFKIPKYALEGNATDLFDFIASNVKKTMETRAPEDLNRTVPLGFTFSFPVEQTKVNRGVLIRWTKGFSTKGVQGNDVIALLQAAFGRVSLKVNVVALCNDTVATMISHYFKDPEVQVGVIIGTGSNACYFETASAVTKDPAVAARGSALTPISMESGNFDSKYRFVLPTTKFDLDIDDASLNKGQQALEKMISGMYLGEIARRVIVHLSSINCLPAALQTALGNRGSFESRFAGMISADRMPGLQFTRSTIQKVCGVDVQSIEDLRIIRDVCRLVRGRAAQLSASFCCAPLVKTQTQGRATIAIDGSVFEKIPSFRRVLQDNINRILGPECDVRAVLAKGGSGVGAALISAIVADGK
Sequence of Mu-type opioid receptor (P35372 whole entry): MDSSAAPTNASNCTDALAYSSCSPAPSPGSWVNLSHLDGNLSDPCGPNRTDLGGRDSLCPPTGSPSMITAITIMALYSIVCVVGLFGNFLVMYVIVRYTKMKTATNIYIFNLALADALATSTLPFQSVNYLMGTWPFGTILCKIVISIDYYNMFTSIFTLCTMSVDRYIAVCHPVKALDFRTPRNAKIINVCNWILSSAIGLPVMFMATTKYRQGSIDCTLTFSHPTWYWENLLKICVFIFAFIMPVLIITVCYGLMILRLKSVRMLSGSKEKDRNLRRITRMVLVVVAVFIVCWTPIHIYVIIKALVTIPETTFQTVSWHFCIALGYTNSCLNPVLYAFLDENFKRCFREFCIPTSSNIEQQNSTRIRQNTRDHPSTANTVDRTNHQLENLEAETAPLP

What is called IC50 is the concentration that gives 50% inhibition. As a reminder, the EC50 is the concentration at which the effect is half-maximal. Consider `CC1(C)C(=O)Nc2ccccc2N1C(=O)Cn1ncc(Cl)c(Cl)c1=O`, for which the IC50 in [1] was 5.11 µM (active). For the same molecule, the figures for the EC50 (in experiment [2]; in experiment [3]; with H4) were > 120 µM (not active), > 60 µM (not active) and > 120 µM (not active), respectively.
Turning to `Cc1cc(-c2ccc(C)c(S(=O)(=O)N3CCN(c4ccccn4)CC3)c2)on1`, the EC50 in [4] is 4.22 µM (active).
As for `Cc1ccc(-c2ccc(OC(=O)c3ccc(=O)[nH]c3)c(C)c2)cc1`, the EC50 at Troponin, cardiac muscle was > 71.5 µM (inactive).
As a reminder, the CC50 is the concentration giving 50% cytotoxicity. For `COC(=O)c1ccc(C(=O)NC2CCCc3c2cnn3-c2cc(F)cc(F)c2)nc1` (stereo unspecified), the figures for the 50% cytotoxic concentration (CC50) in experiment [5] and in experiment [6] were 10.7 µM (active) and 10.8 µM (active), respectively. Further, the concentration giving a half-maximal response (EC50) in experiment [7] was 40 µM (active); with BJ [8], 24.6 µM (active); in the experiment on BJ [9], 17.1 µM (active); with BJ [10] it was 17.3 µM (active). Further, in “cells”, the IC50 was 2.22 µM (active).
Turning to `CC(=O)N1C(=O)C(=C2C=C(C)OC(C)=C2)c2ccccc21`, the half-inhibitory concentration (IC50) in experiment [11] is 2.13 µM (active); in experiment [14] it was > 2.06 µM (active). For the same molecule, the EC50 in [12] is > 99 µM (inactive); on Mucolipin-3 it was > 29.9 µM (not active); in experiment [13], > 99 µM (inactive); at Ion channel NompC, 22 µM (inactive).
For `O=C(Cn1c(=O)c2cccn2c2cccnc21)NCCCN1CCN(c2ccccc2)CC1`, the IC50 is > 20 µM (inactive) in experiment [15]; 12.7 µM (inactive) in [16]; > 32 µM (inactive) in experiment [17]; > 32 µM (inactive) in [18]; 1.17 µM (active) in [19]; > 32 µM (inactive) on Mu-type opioid receptor.
Turning to `c1ccc2c(-c3ccc(OCCN4CCCC4)cc3)c(-c3ccsc3)sc2c1`, the EC50 on Integrin alpha-4 is > 49.4 µM (inactive).
`CCCCCC(=O)Nc1cc(Cl)ccc1C(=O)O`: the IC50 at Hexokinase is > 25 µM (inactive).
Turning to `O=C(N/N=C/c1ccc2cccnc2c1)c1nc(O)c2ccccc2n1`, the EC50 in experiment [20] is 7.78 µM (active).
For the molecule `NNC(=O)c1cc(-c2ccc(Cl)cc2Cl)n[nH]1`, the figures for the IC50 in [21], in [22] and in experiment [23] were > 100 µM (not active), > 100 µM (inactive) and 0.0684 µM (active), respectively.
